≈ marks a conversion by molar mass, not a printed value. Where two headings read alike, the source gives them in different places. Where a SMILES comes first, the peptide text is derived from it. [ ]: non-standard residue; d: D form. The star is where a group is joined. Fumaryl(OMe) = COC(=O)/C=C/C(=O)*; Dap = NC[C@H](N)C(=O)O
Tests used:
Assay type in all cases: cell-based, Candida albicans
[1] = system: C. albicans SC 5314 cells; assay: Morphological changes, Calcofluor White staining for chitin; details: SC 5314 cells in RPMI-1640, 6 h, 30°C, F11 100 μg mL^-1
Description: Candida albicans cells from the overnight cultures in YPD were harvested, washed with sterile saline and suspended in the RPMI-1640 medium, to the final cell density of 10^5 cfu mL^-1. The compounds tested were added at appropriate concentrations and cultures were incubated for 6 h at 30°C, with shaking. At time intervals, samples of 0.1 mL were collected and cells were stained for chitin. The culture samples were combined with 0.1 mL aliquots of the Calcofluor White solution [0.3 mg mL^-1 in 25 mM phosphate-buffered saline (PBS), pH 7.0] and incubated for 5 min at 25°C. The cells were then harvested, washed four times with PBS, re-suspended in 0.1 mL of the fresh PBS and transferred to a microscopic slide. The stained cells were examined with the Olympus BX 60 F5 fluorescence microscope and photographs were taken using the Studio Lite software (Pixera Corporation, United States).
Since the anticandidal activity of P10 was moderate but independent on medium content and that of F11 was higher but strongly influenced by medium composition, it seemed obvious that the molecular bases of growth inhibitory activity of P10 and F11 were different and that a higher activity of F11 resulted from the presence of FMDP in its structure. To confirm whether the anticandidal activity of F11 was a consequence of GlcN6P synthase inhibition by FMDP, a morphology of SC 5314 cells treated with F11 was compared to that of the untreated cells. The cells were stained with Calcofluor White, the fluorescent brightener that binds specifically to chitin in the fungal cell wall. […] Since it is well known that the primary septum is built of chitin, this finding confirms that the action of F11 results in inhibition of chitin biosynthesis.

C. albicans isolate NF3 = details: YNB-SG medium
Text: (§1) The in vitro growth inhibitory activity of antifungals was quantified by determination of minimal inhibitory concentration (MIC) values by the serial twofold dilution method, using the 96-well microtiter plates in three media: buffered RPMI-1640, YNB-AS, and YNB-SG. Conditions of the RPMI-1640-based assay were the same as outlined in the CLSI recommendations ([Clinical Laboratory Standards Institute, 2008]), except for the end-point readout that was done by spectrophotometric determination of cell density at 531 nm. Turbidity in individual wells was measured with a microplate reader (Victor^3; Perkin Elmer). MIC was defined as the lowest drug concentration that gave at least an 80% decrease in turbidity, relative to that of the drug-free growth control.
(§2) The 96-well microtiter plates were also used for determination of in vitro growth inhibitory activity in YPD and YNB-based media. Individual wells were inoculated with 5 × 10^3 cfu mL^-1 of C. albicans cells from the overnight culture in YPD medium. The inoculated plates were incubated 37°C for 24 h and then turbidity was measured with a microplate reader at 531 nm, as described above for the RPMI-1640-based assay.
(§3) Candida albicans cells, apparently resistant to FMDP-peptides, were isolated from the individual colonies formed on the surface of YNB-SG agar medium containing FMDP-peptide, 10 μg mL^-1 or within the growth inhibitory zones around the paper discs saturated with 10 μL of the FMDP-peptide solution, 1 mg mL^-1. In both versions, the agar surface was inoculated with 10^5 cells from the overnight culture in YPD medium, washed three times with sterile water, suspended in 0.2 mL of sterile water and the cell suspension was spread on the whole surface with a sterile glass rod. Plates were incubated for 48 h at 30°C and isolated colonies were picked with a platinum loop.
(§4) Growth inhibitory activity of FMDP-oligopeptides against C. albicans SC 5314 was also determined by the disc diffusion method. […] Cells grown in these colonies were collected, re-grown in YNB-AS and tested for sensitivity to FMDP-oligopeptides.

C. albicans opt5Δ = details: turbidity 531 nm, at least 80% decrease
Description: (§5) Strains were grown at 30°C in YPD medium (1% yeast extract, 2% peptone, and 2% glucose) and stored on YPD plates containing 2% agar. Susceptibility testing was performed in YPD and other three media: (a) RPMI-1640 w/o sodium bicarbonate, with L-glutamine + 2% glucose + 3.45% MOPS, pH adjusted to 7.0; (b) YNB-AS—Yeast Nitrogen Base w/o amino acids (contains ammonium sulfate 5 g L^-1) + 2% glucose; (c) YNB-SG—Yeast Nitrogen Base w/o amino acids and ammonium sulfate + 2% glucose + 0.2 g L^-1 sodium glutamate. In their solid version, used for the mutant generation and isolation, YNB-AS and YNB-SG contained 2% agar.
as §1, §2

C. albicans opt2Δ opt3Δ = details: turbidity 531 nm, at least 80% decrease
Description: as §5, §1, §2

[2] = system: C. albicans opt1–opt5Δ ptr2Δ ptr22Δ; details: turbidity 531 nm, at least 80% decrease
Description: as §5, §1, §2

C. albicans SC5314 = details: for MIC: SC 5314; for Increase of MICs in presence of Ala-Ala-Ala-Ala: YNB-SG + Ala-Ala-Ala-Ala 1 g L^-1; for Effect of supplementation with Ala-Ala or Ala-Ala-Ala on activity: YNB-based media + Ala-Ala or Ala-Ala-Ala, 1 g L^-1, 'similar effect' = complete elimination of activity as with Bacto Peptone; for MIC in YNB-AS, times higher than in YNB-SG: wild type SC5314
Description: as §5, §1, §2

C. albicans opt1–opt5Δ = details: turbidity 531 nm, at least 80% decrease
Description: as §5, §1, §2

C. albicans ptr2Δ ptr22Δ = details: turbidity 531 nm, at least 80% decrease
Description: as §5, §1, §2

C. albicans opt4Δ = details: turbidity 531 nm, at least 80% decrease
Description: as §5, §1, §2

C. albicans opt1Δ = details: turbidity 531 nm, at least 80% decrease
Description: as §5, §1, §2

C. albicans SC 5314 = assay: Disc diffusion method; details: YNB-AS agar, 10 μg of peptide on a disc (10 μL of 1 mg mL^-1), 48 h, 30°C
Description: as §3, §4
FIGURE 3 Disc diffusion activity determination of FMDP-oligopeptides. YNB-AS agar medium, 10 μg of each peptide applied on a disc. (A) F2; (B) F3; (C) F6; (D) F7; (E) F11.

[3] = RPMI-1640 medium, MOPS pH 7.0, CLSI conditions
[4] = RPMI-1640 medium, MOPS pH 7.0, CLSI conditions, turbidity 531 nm, at least 80% decrease
[5] = YNB + L-Gln (0.3 g L^-1) pH 5.0
[6] = YNB + L-Gln (0.3 g L^-1) pH 7.0
[7] = YNB + amino acid mixture (composition as in RPMI-1640)
[8] = YNB-AS medium, 5 × 10^3 cfu mL^-1, 37°C, 24 h, turbidity 531 nm, at least 80% decrease

| Compound | Morphological changes (primary septum / chitin) [1] | MIC (C. albicans isolate NF3) [µg/mL] | MIC (C. albicans opt5Δ; [3]) [µg/mL] | MIC (C. albicans opt5Δ; YNB-AS medium, 37°C, 24 h) [µg/mL] | MIC (C. albicans opt2Δ opt3Δ; [3]) [µg/mL] | MIC [2, 3] [µg/mL] | MIC ([2]; YNB-AS medium, 37°C, 24 h) [µg/mL] | MIC (C. albicans SC5314; [4]) [µg/mL] | MIC (C. albicans SC5314; [5]) [µg/mL] | MIC (C. albicans SC5314; [6]) [µg/mL] | MIC (C. albicans SC5314; [7]) [µg/mL] | MIC (C. albicans SC5314; [8]) [µg/mL] | MIC (C. albicans SC5314; growth medium YNB-SG (Table 6)) [µg/mL] | Increase of MICs in presence of Ala-Ala-Ala-Ala (C. albicans SC5314) | Effect of supplementation with Ala-Ala or Ala-Ala-Ala on activity (C. albicans SC5314) | MIC in YNB-AS, times higher than in YNB-SG (C. albicans SC5314) | MIC (C. albicans opt1–opt5Δ; [3]) [µg/mL] | MIC (C. albicans opt1–opt5Δ; YNB-AS medium, 37°C, 24 h) [µg/mL] | MIC (C. albicans ptr2Δ ptr22Δ; [3]) [µg/mL] | MIC (C. albicans ptr2Δ ptr22Δ; YNB-AS medium, 37°C, 24 h) [µg/mL] | also measured |
| --- | --- | --- | --- | --- | --- | --- | --- | --- | --- | --- | --- | --- | --- | --- | --- | --- | --- | --- | --- | --- | --- |
| COC(=O)/C=C/C(=O)NC[C@H](N)C(=O)N[C@@H](CCCNC(=N)N)C(=O)N[C@@H](CCCCN)C(=O)N[C@@H](CCCCN)C(=O)N[C@@H](Cc1c[nH]c2ccccc12)C(=O)N[C@@H](Cc1ccccc1)C(=O)N[C@@H](Cc1c[nH]c2ccccc12)C(=O)O [Peptide F7, FMDP-Arg-Lys-Lys-Trp-Phe-Trp] (H-[Dap](Fumaryl(OMe))RKKWFW-OH; N-terminus and C-terminus assumed) | analogous to those observed for F11-treated cells | 16 (≈ 13.9 µM) | >128 | 32 (≈ 27.9 µM) | >128 | >128 | >128 | >128 | 8.0 | 64 | >128 | 16 (≈ 13.9 µM) | 0.5 (≈ 0.435 µM) | 16- to 64 fold | no effect | 8–16 times | >128 | >128 | >128 | 16 (≈ 13.9 µM) | MIC (C. albicans opt5Δ; YNB-SG medium, 37°C, 24 h): 2 µg/mL (≈ 1.74 µM); MIC (C. albicans opt2Δ opt3Δ; YNB-SG medium, 37°C, 24 h): 32 µg/mL (≈ 27.9 µM); MIC ([2]; YNB-SG medium, 37°C, 24 h): 64 µg/mL (≈ 55.7 µM); MIC (C. albicans SC5314; YNB-SG medium, 5 × 10^3 cfu mL^-1, 37°C, 24 h, turbidity 531 nm, at least 80% decrease): 0.5 µg/mL (≈ 0.435 µM); MIC (C. albicans opt1–opt5Δ; YNB-SG medium, 37°C, 24 h): 64 µg/mL (≈ 55.7 µM); MIC (C. albicans ptr2Δ ptr22Δ; YNB-SG medium, 37°C, 24 h): 0.5 µg/mL (≈ 0.435 µM); MIC (C. albicans opt4Δ; [3]): >128 µg/mL; MIC (C. albicans opt4Δ; YNB-AS medium, 37°C, 24 h): 32 µg/mL (≈ 27.9 µM); MIC (C. albicans opt4Δ; YNB-SG medium, 37°C, 24 h): 16 µg/mL (≈ 13.9 µM); MIC (C. albicans opt1Δ; [3]): >128 µg/mL; MIC (C. albicans opt1Δ; YNB-AS medium, 37°C, 24 h): 32 µg/mL (≈ 27.9 µM); MIC (C. albicans opt1Δ; YNB-SG medium, 37°C, 24 h): 8 µg/mL (≈ 6.97 µM); Appearance of growth inhibitory zone (C. albicans SC 5314): clear |
| COC(=O)/C=C/C(=O)NC[C@H](N)C(=O)N[C@@H](CCCCN)C(=O)N[C@@H](CCCCN)C(=O)N[C@H](C(=O)N[C@H](C(=O)N[C@@H](Cc1ccccc1)C(=O)N[C@@H](Cc1c[nH]c2ccccc12)C(=O)N[C@H](C(=O)N[C@@H](CCCCN)C(=O)N[C@@H](Cc1ccccc1)C(=O)N[C@@H](CCCCN)C(=O)O)C(C)C)C(C)C)C(C)C [Peptide F11, FMDP-Lys-Lys-Val-Val-Phe-Trp-Val-Lys-Phe-Lys] (H-[Dap](Fumaryl(OMe))KKVVFWVKFK-OH; N-terminus assumed) | defective in formation of a primary septum | 16 (≈ 10.6 µM) | >128 | 16 (≈ 10.6 µM) | >128 | >128 | >128 | >128 | 16 | >128 | >128 | 16 (≈ 10.6 µM) | 1.0 (≈ 0.664 µM) | 16- to 64 fold | no effect | 8–16 times | >128 | >128 | >128 | 16 (≈ 10.6 µM) | MIC (C. albicans opt2Δ opt3Δ; YNB-AS medium, 37°C, 24 h): 128 µg/mL (≈ 84.9 µM); Effect of N-acetyl-D-glucosamine supplementation on growth inhibitory activity (C. albicans SC5314; YNB-SG medium + N-acetyl-D-glucosamine, 10 mM): complete elimination of growth inhibitory activity; MIC (C. albicans opt4Δ; [3]): >128 µg/mL; MIC (C. albicans opt4Δ; YNB-AS medium, 37°C, 24 h): 32 µg/mL (≈ 21.2 µM); MIC (C. albicans opt1Δ; [3]): >128 µg/mL; MIC (C. albicans opt1Δ; YNB-AS medium, 37°C, 24 h): 32 µg/mL (≈ 21.2 µM); Appearance of growth inhibitory zone (C. albicans SC 5314): clear |
